Data taken from PMC9587990, “Molecular basis for isoform-selective inhibition of presenilin-1 by MRK-560” (Nature Communications, 2022).
Where “and” joins values, the source holds several entries; their conditions need not be identical. Equal values may be shown once. Read-outs that look alike come from different tables or passages of the source.

What was measured:
[1] = target: T1, PS1 TL281-282PI γ-secretase complex (Homo sapiens, UniProt P49768, L282I/T281P); assay: in vitro cleavage assay, Aβ40 production by AlphaLISA; format: biochemical; settings: for remaining activity at 0.002 µM / remaining activity at 0.01 µM / remaining activity at 0.04 µM / remaining activity at 0.2 µM / remaining activity at 1 µM / remaining activity at 10 µM: 4 h; for remaining activity at 0.002 µM / remaining activity at 0.01 µM / remaining activity at 0.04 µM / remaining activity at 0.2 µM / remaining activity at 1 µM / remaining activity at 10 µM / Caculated Aβ40 production / raw data from α-Lisa reading: PS1TL 281 282PI
T1 construct: made in house
Protocol: (§1) In total we generated six variants, including single and double residue swapping of Thr281/Leu282 in PS1 with Pro287/Ile288 in PS2, respectively. MRK-560 response to the six PS1/PS2 mutant-containing complexes, each purified to homogeneity, was examined in the in vitro cleavage assay (Fig. 4). All proteins used for the activity assay were sub-cloned, expressed and purified as described. Protein concentration was determined using the Bradford method. […] The cleavage reaction was conducted at 37 °C for 4 h. The cleaved products of these substrates were detected using a monoclonal antibody (1:1000 dilution, CW0299, CWBio) against the C-terminal Myc tag. Aβ40 production was detected using the AlphaLISA assay (PerkinElmer) as described. The IC50 values and the inhibition curves were calculated using Prism 8.0. Statistical analysis of Aβ40 was performed using Prism 8 (GraphPad Software, San Diego, CA, USA). IC50 were determined by a four-parameter logistic regression. The statistical details can be found in Figs. 1, 4 and legends. Data are expressed as mean ± SD.

[2] = target: T2, PS2-complex (WT PS2-containing γ-secretase) (Homo sapiens, UniProt P49810); assay: as above; format: biochemical; settings: for remaining activity at 0.002 µM / remaining activity at 0.01 µM / remaining activity at 0.04 µM / remaining activity at 0.2 µM / remaining activity at 1 µM / remaining activity at 10 µM: 4 h; for remaining activity at 0.002 µM / remaining activity at 0.01 µM / remaining activity at 0.04 µM / remaining activity at 0.2 µM / remaining activity at 1 µM / remaining activity at 10 µM / Caculated Aβ40 production / raw data from α-Lisa reading: PS2 WT
T2 construct: made in house; host or cells: mammalian cells (HEK293F is stated for the cryo-EM samples)
Protocol: as §1, with “The PS1- or PS2 complexes were expressed and purified as described. To validate the inhibitory effect of MRK-560 (Fig. 1a),” for “In total”, “reconstituted an” for “generated six variants, including single and double residue swapping of Thr281/Leu282 in PS1 with Pro287/Ile288 in PS2, respectively. MRK-560 response to the six PS1/PS2 mutant-containing complexes, each purified to homogeneity, was examined in the”, “using the purified PS1- or PS2 complexes. Production of Aβ40, which is the major cleavage product among the varying lengths of Aβs, and AICD, whose cleavage reflects the endopeptidase activity of γ-secretase, are measured with AlphaLISA and western blots, respectively.” for “(Fig. 4).”

[3] = target: T3, PS1-complex (WT PS1-containing γ-secretase) (Homo sapiens, UniProt P49768); assay: as above; format: biochemical; settings: for remaining activity at 0.002 µM / remaining activity at 0.01 µM / remaining activity at 0.04 µM / remaining activity at 0.2 µM / remaining activity at 1 µM / remaining activity at 10 µM: 4 h
T3 construct: made in house; host or cells: mammalian cells (HEK293F is stated for the cryo-EM samples)
Protocol: as §1, with “The PS1- or PS2 complexes were expressed and purified as described. To validate the inhibitory effect of MRK-560 (Fig. 1a),” for “In total”, “reconstituted an” for “generated six variants, including single and double residue swapping of Thr281/Leu282 in PS1 with Pro287/Ile288 in PS2, respectively. MRK-560 response to the six PS1/PS2 mutant-containing complexes, each purified to homogeneity, was examined in the”, “using the purified PS1- or PS2 complexes. Production of Aβ40, which is the major cleavage product among the varying lengths of Aβs, and AICD, whose cleavage reflects the endopeptidase activity of γ-secretase, are measured with AlphaLISA and western blots, respectively.” for “(Fig. 4).”

[4] = tested on: Aβ production in the brain; design: method as in PMID 17099072, PMID 16443723; settings: cited from earlier work
[5] = MRK-560 2 nM, mean of 3 replicates, read-out: Normalized production (control=1), Mean
[6] = MRK-560 2 nM, replicates, read-out: Normalized production (control=1)
[7] = MRK-560 10 nM, mean of 3 replicates, read-out: Normalized production (control=1), Mean
[8] = MRK-560 10 nM, replicates, read-out: Normalized production (control=1)
[9] = MRK-560 40 nM, mean of 3 replicates, read-out: Normalized production (control=1), Mean
[10] = MRK-560 40 nM, replicates, read-out: Normalized production (control=1)
[11] = MRK-560 200 nM, mean of 3 replicates, read-out: Normalized production (control=1), Mean
[12] = MRK-560 200 nM, replicates, read-out: Normalized production (control=1)
[13] = MRK-560 1 μM, mean of 3 replicates, read-out: Normalized production (control=1), Mean
[14] = MRK-560 1 μM, replicates, read-out: Normalized production (control=1)
[15] = MRK-560 10 μM, mean of 3 replicates, read-out: Normalized production (control=1), Mean
[16] = MRK-560 10 μM, replicates, read-out: Normalized production (control=1)
[17] = PS1 WT, MRK-560 2 nM, replicates
[18] = PS1 WT, MRK-560 10 nM, replicates
[19] = PS1 WT, MRK-560 40 nM, replicates
[20] = PS1 WT, MRK-560 200 nM, replicates
[21] = PS1 WT, MRK-560 1 μM, replicates
[22] = PS1 WT, MRK-560 10 μM, replicates

IC50 [1]: 0.195 ± 0.016 µM | remaining activity at 0.002 µM [1, 5]: 116% | remaining activity at 0.002 µM [1, 6]: 115% | remaining activity at 0.01 µM [1, 7]: 112% | remaining activity at 0.01 µM [1, 8]: 113% | remaining activity at 0.04 µM [1, 9]: 105% | remaining activity at 0.04 µM [1, 10]: 103% | remaining activity at 0.2 µM [1, 11]: 57.2% | remaining activity at 0.2 µM [1, 12]: 59.1% | remaining activity at 1 µM [1, 13]: 11.1% | remaining activity at 1 µM [1, 14]: 11% | remaining activity at 10 µM [1, 15]: 1.33% | remaining activity at 10 µM [1, 16]: 1.43% | Caculated Aβ40 production ([1]; MRK-560 2 nM, replicates): 380.9708 and 384.7930 and 381.0949 | raw data from α-Lisa reading ([1]; MRK-560 2 nM, replicates): 58097 and 58620 and 58114 | Caculated Aβ40 production ([1]; MRK-560 10 nM, replicates): 372.0557 and 371.8958 and 369.4343 | raw data from α-Lisa reading ([1]; MRK-560 10 nM, replicates): 56873 and 56851 and 56512 | Caculated Aβ40 production ([1]; MRK-560 40 nM, replicates): 339.5167 and 363.4357 and 337.7821 | raw data from α-Lisa reading ([1]; MRK-560 40 nM, replicates): 52356 and 55684 and 52113 | Caculated Aβ40 production ([1]; MRK-560 200 nM, replicates): 195.2943 and 180.8050 and 191.3579 | raw data from α-Lisa reading ([1]; MRK-560 200 nM, replicates): 31350 and 29146 and 30753 | Caculated Aβ40 production ([1]; MRK-560 1 μM, replicates): 36.3190 and 36.2828 and 37.2900 | raw data from α-Lisa reading ([1]; MRK-560 1 μM, replicates): 6150 and 6144 and 6311 | Caculated Aβ40 production ([1]; MRK-560 10 μM, replicates): 4.7413 and 3.9425 and 4.5046 | raw data from α-Lisa reading ([1]; MRK-560 10 μM, replicates): 864 and 729 and 824 | remaining activity at 0.002 µM [2, 5]: 98.5% | remaining activity at 0.002 µM [2, 6]: 96.8% | remaining activity at 0.01 µM [2, 7]: 93.7% | remaining activity at 0.01 µM [2, 8]: 96.7% | remaining activity at 0.04 µM [2, 9]: 94.4% | remaining activity at 0.04 µM [2, 10]: 92.8% | remaining activity at 0.2 µM [2, 11]: 44.1% | remaining activity at 0.2 µM [2, 12]: 43.5% | remaining activity at 1 µM [2, 13]: 9.52% | remaining activity at 1 µM [2, 14]: 8.72% | remaining activity at 10 µM [2, 15]: 6.39% | remaining activity at 10 µM [2, 16]: 6.67% | IC50 ([2]; PS2-complex WT, mean ± SD, n=3): 0.173 ± 0.024 µM | Caculated Aβ40 production ([2]; MRK-560 2 nM, replicates): 178.2729 and 172.6848 and 175.9467 | raw data from α-Lisa reading ([2]; MRK-560 2 nM, replicates): 27903 and 28403 and 28759 | Caculated Aβ40 production ([2]; MRK-560 10 nM, replicates): 177.3643 and 172.5675 and 151.3305 | raw data from α-Lisa reading ([2]; MRK-560 10 nM, replicates): 27885 and 24607 and 28620 | Caculated Aβ40 production ([2]; MRK-560 40 nM, replicates): 171.4208 and 165.5620 and 168.4662 | raw data from α-Lisa reading ([2]; MRK-560 40 nM, replicates): 26808 and 27255 and 27709 | Caculated Aβ40 production ([2]; MRK-560 200 nM, replicates): 82.1115 and 77.5422 and 76.1780 | raw data from α-Lisa reading ([2]; MRK-560 200 nM, replicates): 12906 and 12685 and 13645 | Caculated Aβ40 production ([2]; MRK-560 1 μM, replicates): 17.8069 and 15.5539 and 17.5803 | raw data from α-Lisa reading ([2]; MRK-560 1 μM, replicates): 2685 and 3025 and 3063 | Caculated Aβ40 production ([2]; MRK-560 10 μM, replicates): 12.9409 and 11.9064 and 9.3762 | raw data from α-Lisa reading ([2]; MRK-560 10 μM, replicates): 2072 and 1646 and 2246 | remaining activity at 0.002 µM ([3]; PS1 WT, MRK-560 2 nM, mean of 3 replicates, read-out: Normalized production (control=1), Mean): 101% | remaining activity at 0.002 µM ([3]; PS1 WT, MRK-560 2 nM, replicates, read-out: Normalized production (control=1)): 102% | remaining activity at 0.01 µM ([3]; PS1 WT, MRK-560 10 nM, mean of 3 replicates, read-out: Normalized production (control=1), Mean): 92.4% | remaining activity at 0.01 µM ([3]; PS1 WT, MRK-560 10 nM, replicates, read-out: Normalized production (control=1)): 90.9% | remaining activity at 0.04 µM ([3]; PS1 WT, MRK-560 40 nM, mean of 3 replicates, read-out: Normalized production (control=1), Mean): 43.2% | remaining activity at 0.04 µM ([3]; PS1 WT, MRK-560 40 nM, replicates, read-out: Normalized production (control=1)): 43.4% | remaining activity at 0.2 µM ([3]; PS1 WT, MRK-560 200 nM, mean of 3 replicates, read-out: Normalized production (control=1), Mean): 8.2% | remaining activity at 0.2 µM ([3]; PS1 WT, MRK-560 200 nM, replicates, read-out: Normalized production (control=1)): 8.25% | remaining activity at 1 µM ([3]; PS1 WT, MRK-560 1 μM, mean of 3 replicates, read-out: Normalized production (control=1), Mean): 0.63% | remaining activity at 1 µM ([3]; PS1 WT, MRK-560 1 μM, replicates, read-out: Normalized production (control=1)): 0.63% | remaining activity at 10 µM ([3]; PS1 WT, MRK-560 10 μM, mean of 3 replicates, read-out: Normalized production (control=1), Mean): 0.52% | remaining activity at 10 µM ([3]; PS1 WT, MRK-560 10 μM, replicates, read-out: Normalized production (control=1)): 0.46% | IC50 ([3]; PS1-complex WT, mean ± SD, n=3): 0.033 ± 0.002 µM | Caculated Aβ40 production [3, 17]: 346.0052 and 350.2238 and 339.9166 | raw data from α-Lisa reading [3, 17]: 53851 and 52412 and 53263 | Caculated Aβ40 production [3, 18]: 325.7701 and 311.5896 and 312.3355 | raw data from α-Lisa reading [3, 18]: 48416 and 48522 and 50424 | Caculated Aβ40 production [3, 19]: 146.9566 and 148.7756 and 148.6084 | raw data from α-Lisa reading [3, 19]: 24210 and 24184 and 23927 | Caculated Aβ40 production [3, 20]: 26.7052 and 28.2767 and 29.2852 | raw data from α-Lisa reading [3, 20]: 4813 and 4981 and 4551 | Caculated Aβ40 production [3, 21]: 2.1627 and 2.1745 and 2.1272 | raw data from α-Lisa reading [3, 21]: 430 and 422 and 428 | Caculated Aβ40 production [3, 22]: 1.8967 and 1.5777 and 1.8849 | Normalized production (control=1) [3, 22]: 0.0055 | raw data from α-Lisa reading [3, 22]: 329 and 381 and 383
Compound: O=S(=O)(NC1CCC(c2cc(F)ccc2F)(S(=O)(=O)c2ccc(Cl)cc2)CC1)C(F)(F)F (stereo not drawn) [MRK-560, N-[cis-4-[(4-chlorophenyl)sulfonyl]-4-(2,5-difluorophenyl)cyclohexyl]-1,1,1-trifluoromethanesulfonamide]
Aβ production in the brain [4]: reduced
